# Laboratory results: patent US8735389B2, “Treating psychological conditions using muscarinic receptor M1 antagonists” (priority 2006, dated 2014)
# Tests used:
# [1] = system: male CD-1 mice; assay: tail suspension test (immobility time); type: in vivo
# Text: Antidepressant Effects: The tail suspension methodology was used to assess compounds for their antidepressant effects. The methodology was adapted from the original description by Stem et al. (Stem L, et al., Psychopharmacol 85:367-70, 1985; Stem L, et al., Prog Neuro-Psychopharmacol & Biol Psychiat 11:659-71, 1987) and later modifications by Crowley et al. (Crowley J J, et al., Pharmacol Biochem Beh 78(2):269-74, 2004). Seven- to eight-week-old (25-35 grams) male, CD-1 mice were housed for one week prior to testing. Mice (n=8-10 per dose group) were dosed intraperitoneally (ip) or orally (po) with the compound under investigation, and returned to their home cage for the appropriate pretreatment interval (45-60 min). Using tape, the mice were then suspended by the tail from a strain gauge. Activity over the next 6 minutes was scored by computer as either: 1) Immobility, 2) Escape Behavior or 3) Major Escape Behavior, based on the intensity of movements registered by the strain gauge. Total Immobility was calculated and expressed in seconds. […] Treatment effects are presented in Table 1 and FIGS. 1-6 as both raw Time Spent Immobile (in seconds±SEM [standard error of the mean]) and as % Reduction in Immobility=[1−(Treatment Immobility/Vehicle Immobility)]×100%. Similar superscripts in the Dose column of Table 1 denote values derived from the same experiment (to facilitate comparisons between individual treatments and co-administrations). Statistical analyses were performed using a 1-way ANOVA (analysis of variance) followed by a Bonferroni multiple comparison test with the overall alpha set at 0.05. In Table 1, asterisks (*) denote significant effects compared to vehicle-treated mice, while letters (a or b) denote significant effects compared to mice treated with a single compound (“a” for significance from antidepressant and “b” for significance from telenzepine). In Table 1, the symbol denotes p<0.05, two symbols denote p<0.01 and three symbols denote p<0.001). The symbols used for denoting statistical significance may be different in the corresponding figures.
# [2] = system: GABA efflux; conditions: directly injected into the midbrain; cited from earlier work
# [3] = at 90 degrees; cited from earlier work
# [4] = system: muscarinic receptor; conditions: cited from earlier work
# [5] = system: cardiac receptors; conditions: cited from earlier work
# [6] = system: cortical receptors; conditions: cited from earlier work
# [7] = system: dopamine efflux in the striatum; conditions: local microinjection; cited from earlier work
# [8] = system: mice and rats; conditions: administered systemically; cited from earlier work
smiles,measurement,setting,value
"COc1ccc(C(CN(C)C)C2(O)CCCCC2)cc1 (stereo not shown) [Venlafaxine, venlafaxine]",Reduction in Immobility,"[1]; 3 mg/kg ip, experiment i",8%
same,Treatment Immobility Time,"[1]; 3 mg/kg ip, experiment i",103 ± 21 s
same,Reduction in Immobility,"[1]; 10 mg/kg ip, experiment b",10%
same,Treatment Immobility Time,"[1]; 10 mg/kg ip, experiment b",103 ± 15 s
same,Reduction in Immobility,"[1]; 10 mg/kg ip, experiment i",−4%
same,Treatment Immobility Time,"[1]; 10 mg/kg ip, experiment i",116 ± 20 s
same,Reduction in Immobility,"[1]; 30 mg/kg ip, experiment i",72%
same,Treatment Immobility Time,"[1]; 30 mg/kg ip, experiment i",31 ± 09 s
same,Reduction in Immobility,"[1]; 30 mg/kg ip, experiment i, listed as venlafaxine",72%
same,lowering of the effective antidepressant dose,[1]; to 10 mg/kg by co-administering 5 mg/kg telenzepine,3 fold
"Cc1scc2c1N(C(=O)CN1CCN(C)CC1)c1ccccc1NC2=O [Telenzepine, 4,9-Dihydro-3-methyl-4-[(4-methyl-1-piperazinyl)acetyl]-10H-thieno[3,4-b][1,5]benzodiazepin-10-one]",Reduction in Immobility,"[1]; 5 mg/kg ip, experiment a",30%
same,Treatment Immobility Time,"[1]; 5 mg/kg ip, experiment a",80 ± 14 s
same,Reduction in Immobility,"[1]; 5 mg/kg ip, experiment b",21%
same,Treatment Immobility Time,"[1]; 5 mg/kg ip, experiment b",90 ± 18 s
same,Reduction in Immobility,"[1]; 5 mg/kg ip, experiment d",−27%
same,Treatment Immobility Time,"[1]; 5 mg/kg ip, experiment d",159 ± 23 s
same,Reduction in Immobility,"[1]; 10 mg/kg ip, experiment c",34%
same,Treatment Immobility Time,"[1]; 10 mg/kg ip, experiment c",64 ± 15 s
same,Reduction in Immobility,"[1]; 25 mg/kg ip, experiment d",33%
same,Treatment Immobility Time,"[1]; 25 mg/kg ip, experiment d",84 ± 07 s
same,Reduction in Immobility,"[1]; 50 mg/kg ip, experiment d",51%
same,Treatment Immobility Time,"[1]; 50 mg/kg ip, experiment d",61 ± 11 s
same,Reduction in Immobility,"[1]; 60 mg/kg po, experiment e",45%
same,Treatment Immobility Time,"[1]; 60 mg/kg po, experiment e",71 ± 15 s
same,Reduction in Immobility,"[1]; 80 mg/kg po, experiment e",37%
same,Treatment Immobility Time,"[1]; 80 mg/kg po, experiment e",82 ± 18 s
same,Reduction in Immobility,"[1]; 100 mg/kg po, experiment e",55%
same,Treatment Immobility Time,"[1]; 100 mg/kg po, experiment e",59 ± 10 s
same,effect on immobility (in words),[1]; alone at 25 mg/kg ip (FIG. 2),significant reduction in immobility
same,effect on immobility (in words),[1]; alone at 60 mg/kg po (FIG. 3),significant reduction in immobility
same,GABA efflux,[2],reduced GABA efflux
same,half time of interconversion of the two forms,[3],approximately 200 hours
"CN[C@H]1CC[C@@H](c2ccc(Cl)c(Cl)c2)c2ccccc21 [Sertraline, sertraline]",Reduction in Immobility,"[1]; 1 mg/kg ip, experiment a",24%
same,Treatment Immobility Time,"[1]; 1 mg/kg ip, experiment a",87 ± 14 s
same,Reduction in Immobility,"[1]; 5 mg/kg ip, experiment h",48%
same,Treatment Immobility Time,"[1]; 5 mg/kg ip, experiment h",63 ± 08 s
same,Reduction in Immobility,"[1]; 5 mg/kg ip, experiment h, listed as sertraline",48%
same,Reduction in Immobility,"[1]; 20 mg/kg ip, experiment h",59%
same,Treatment Immobility Time,"[1]; 20 mg/kg ip, experiment h",50 ± 16 s
same,Reduction in Immobility,"[1]; 40 mg/kg ip, experiment h",64%
same,Treatment Immobility Time,"[1]; 40 mg/kg ip, experiment h",44 ± 15 s
same,lowering of the effective antidepressant dose,[1]; to 1 mg/kg by co-administering 5 mg/kg TZP,5 fold
Cc1scc2c1N(C(=O)CN1CCN(C)CC1)c1ccccc1NC2=O [(−) form],antimuscarinic activity,[4],considerably less active
"CNCCC(Oc1ccc(C(F)(F)F)cc1)c1ccccc1 (stereo not shown) [Fluoxetine, fluoxetine]",Reduction in Immobility,"[1]; 4 mg/kg ip, experiment c",0%
same,Treatment Immobility Time,"[1]; 4 mg/kg ip, experiment c",97 ± 11 s
same,Reduction in Immobility,"[1]; 4 mg/kg ip, experiment g",45%
same,Treatment Immobility Time,"[1]; 4 mg/kg ip, experiment g",81 ± 16 s
same,Reduction in Immobility,"[1]; 20 mg/kg ip, experiment g",45%
same,Treatment Immobility Time,"[1]; 20 mg/kg ip, experiment g",82 ± 16 s
same,Reduction in Immobility,"[1]; 40 mg/kg ip, experiment g",64%
same,Treatment Immobility Time,"[1]; 40 mg/kg ip, experiment g",53 ± 14 s
same,lowering of the effective antidepressant dose (estimated),[1]; to 4 mg/kg by co-administering 10 mg/kg TZP,approximately 7 fold
Cc1scc2c1N(C(=O)CN1CCN(C)CC1)c1ccccc1NC2=O [(+) form of telenzepine],factor by which the (+) form is more potent than the (−) form,[5],50
same,antimuscarinic activity,[4],potent antimuscarinic activity
same,factor by which the (+) form is more effective than the (−) isomer,[6],400
"CN1CCN(CC(=O)N2c3ccccc3C(=O)Nc3cccnc32)CC1 [Pirenzepine, 5,11-Dihydro-11-[(4-methyl-1-piperazinyl)acetyl]-6H-pyrido[2,3-b][1,4]benzodiazepin-6-one]",Reduction in Immobility,"[1]; 5 mg/kg ip, experiment f",−11%
same,Treatment Immobility Time,"[1]; 5 mg/kg ip, experiment f",137 ± 15 s
same,Reduction in Immobility,"[1]; 25 mg/kg ip, experiment f",27%
same,Treatment Immobility Time,"[1]; 25 mg/kg ip, experiment f",90 ± 17 s
same,Reduction in Immobility,"[1]; 50 mg/kg ip, experiment f",38%
same,Treatment Immobility Time,"[1]; 50 mg/kg ip, experiment f",76 ± 12 s
same,effect on immobility (in words),[1]; alone at 50 mg/kg ip (FIG. 1),significant reduction in immobility
same,dopamine efflux in the striatum,[7],decreased dopamine efflux in the striatum
same,behavioral effects,[8],failed to elicit any behavioral effects
